The values below come from ChEMBL document CHEMBL5291721, “A preclinical secondary pharmacology resource illuminates target-adverse drug reaction associations of marketed drugs” (Nat Commun, 2023).

In one assay the target is T1, Adenosine receptor A3 (Homo sapiens, UniProt P0DMS8).
T1 sequence (P0DMS8 whole entry): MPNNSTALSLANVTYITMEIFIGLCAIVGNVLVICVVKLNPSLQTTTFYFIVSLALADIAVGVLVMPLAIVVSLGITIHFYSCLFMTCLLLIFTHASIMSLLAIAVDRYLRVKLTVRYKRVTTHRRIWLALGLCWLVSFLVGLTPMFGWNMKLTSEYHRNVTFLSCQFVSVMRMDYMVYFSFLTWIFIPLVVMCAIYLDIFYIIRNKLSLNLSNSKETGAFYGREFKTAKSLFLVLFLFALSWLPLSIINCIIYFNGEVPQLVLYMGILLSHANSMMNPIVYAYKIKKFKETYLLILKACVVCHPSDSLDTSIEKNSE

For assay [1], the target named is T2, Muscarinic acetylcholine receptor M1 (Homo sapiens, UniProt P11229).
T2 sequence (P11229 whole entry): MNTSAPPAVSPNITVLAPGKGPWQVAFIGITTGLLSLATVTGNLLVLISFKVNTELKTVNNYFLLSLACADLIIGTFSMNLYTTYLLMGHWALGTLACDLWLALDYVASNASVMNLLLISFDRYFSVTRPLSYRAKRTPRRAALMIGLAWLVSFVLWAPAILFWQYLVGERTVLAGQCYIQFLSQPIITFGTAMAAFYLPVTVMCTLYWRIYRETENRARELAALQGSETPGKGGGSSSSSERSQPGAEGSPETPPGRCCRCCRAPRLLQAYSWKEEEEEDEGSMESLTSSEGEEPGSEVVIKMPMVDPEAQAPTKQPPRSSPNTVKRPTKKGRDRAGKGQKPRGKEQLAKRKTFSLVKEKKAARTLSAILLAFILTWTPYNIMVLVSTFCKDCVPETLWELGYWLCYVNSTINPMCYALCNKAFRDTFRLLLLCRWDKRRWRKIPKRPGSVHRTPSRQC
The format is functional.

Assay [2] concerns the target T3, Muscarinic acetylcholine receptor M2 (Homo sapiens, UniProt P08172).
T3 sequence (P08172 whole entry): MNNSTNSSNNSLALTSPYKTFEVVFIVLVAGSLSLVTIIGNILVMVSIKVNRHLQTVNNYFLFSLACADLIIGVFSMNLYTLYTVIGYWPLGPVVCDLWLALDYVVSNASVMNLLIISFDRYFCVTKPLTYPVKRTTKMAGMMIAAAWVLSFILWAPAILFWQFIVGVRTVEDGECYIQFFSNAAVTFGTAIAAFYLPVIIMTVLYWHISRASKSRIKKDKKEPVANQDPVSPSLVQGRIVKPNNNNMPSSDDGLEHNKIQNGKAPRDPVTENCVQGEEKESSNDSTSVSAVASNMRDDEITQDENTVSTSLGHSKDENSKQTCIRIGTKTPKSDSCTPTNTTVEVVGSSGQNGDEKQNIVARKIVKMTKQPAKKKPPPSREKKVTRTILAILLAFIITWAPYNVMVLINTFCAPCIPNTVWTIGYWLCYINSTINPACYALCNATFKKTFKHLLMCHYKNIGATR
The format is functional, cell-based.

Assay [3] addresses Gamma-aminobutyric acid receptor subunit alpha-1/alpha-2/beta-2/gamma-2 (Homo sapiens, UniProt P14867+P18507+P47869+P47870). The format is functional, cell-based.
Assay [4] has as its target 5-hydroxytryptamine receptor 2A (Homo sapiens, UniProt P28223). The assay is classed as functional, cell-based.
Another assay deals with Motilin receptor (Homo sapiens, UniProt O43193).
For assay [5], the target named is T4, Progesterone receptor (Homo sapiens, UniProt P06401).
T4 sequence (P06401 whole entry): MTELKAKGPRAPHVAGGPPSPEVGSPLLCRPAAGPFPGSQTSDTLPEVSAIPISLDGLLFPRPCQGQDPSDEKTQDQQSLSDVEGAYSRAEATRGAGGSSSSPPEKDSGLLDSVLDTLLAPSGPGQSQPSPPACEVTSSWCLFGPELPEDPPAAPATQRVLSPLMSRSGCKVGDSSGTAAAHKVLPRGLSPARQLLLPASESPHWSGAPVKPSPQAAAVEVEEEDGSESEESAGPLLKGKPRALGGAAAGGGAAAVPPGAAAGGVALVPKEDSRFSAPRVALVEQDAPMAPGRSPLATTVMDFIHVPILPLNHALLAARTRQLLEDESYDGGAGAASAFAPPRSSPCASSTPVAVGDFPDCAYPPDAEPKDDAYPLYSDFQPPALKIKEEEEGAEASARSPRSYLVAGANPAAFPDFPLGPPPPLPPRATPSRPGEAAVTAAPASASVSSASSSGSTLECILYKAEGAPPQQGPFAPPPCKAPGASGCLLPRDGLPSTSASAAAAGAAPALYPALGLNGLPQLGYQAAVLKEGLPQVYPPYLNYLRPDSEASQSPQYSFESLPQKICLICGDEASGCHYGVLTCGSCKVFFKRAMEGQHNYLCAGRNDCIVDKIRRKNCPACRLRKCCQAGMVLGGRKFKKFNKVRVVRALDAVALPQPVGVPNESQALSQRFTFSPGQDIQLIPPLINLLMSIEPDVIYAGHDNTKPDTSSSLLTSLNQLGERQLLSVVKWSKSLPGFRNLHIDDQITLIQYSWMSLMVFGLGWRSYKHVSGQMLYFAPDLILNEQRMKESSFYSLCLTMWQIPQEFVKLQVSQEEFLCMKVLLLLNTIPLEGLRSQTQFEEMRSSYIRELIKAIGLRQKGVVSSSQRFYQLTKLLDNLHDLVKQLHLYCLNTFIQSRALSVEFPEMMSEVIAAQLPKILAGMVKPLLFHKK
The assay is classed as functional.

For assay [6], the target named is 5-hydroxytryptamine receptor 2B (Homo sapiens, UniProt P41595).
Assay [7] concerns the target T4, Progesterone receptor.
The next assay concerns the target T5, Thromboxane A2 receptor (Homo sapiens, UniProt P21731).
T5 sequence (P21731 whole entry): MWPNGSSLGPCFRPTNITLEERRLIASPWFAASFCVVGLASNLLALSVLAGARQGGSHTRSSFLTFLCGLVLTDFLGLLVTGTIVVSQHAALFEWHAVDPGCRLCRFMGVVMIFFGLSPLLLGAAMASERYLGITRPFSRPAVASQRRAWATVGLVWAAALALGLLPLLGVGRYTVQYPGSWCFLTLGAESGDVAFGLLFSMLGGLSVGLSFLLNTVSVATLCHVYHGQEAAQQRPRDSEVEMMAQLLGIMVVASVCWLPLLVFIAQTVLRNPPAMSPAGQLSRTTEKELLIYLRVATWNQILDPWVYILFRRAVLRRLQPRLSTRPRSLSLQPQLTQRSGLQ

The target of assay [8] is T3, Muscarinic acetylcholine receptor M2.

A value given as a limit tells only on which side of the number the result lay.
Note: assay procedure not described here.

Chain of 5-hydroxytryptamine receptor 2A (P28223 whole entry): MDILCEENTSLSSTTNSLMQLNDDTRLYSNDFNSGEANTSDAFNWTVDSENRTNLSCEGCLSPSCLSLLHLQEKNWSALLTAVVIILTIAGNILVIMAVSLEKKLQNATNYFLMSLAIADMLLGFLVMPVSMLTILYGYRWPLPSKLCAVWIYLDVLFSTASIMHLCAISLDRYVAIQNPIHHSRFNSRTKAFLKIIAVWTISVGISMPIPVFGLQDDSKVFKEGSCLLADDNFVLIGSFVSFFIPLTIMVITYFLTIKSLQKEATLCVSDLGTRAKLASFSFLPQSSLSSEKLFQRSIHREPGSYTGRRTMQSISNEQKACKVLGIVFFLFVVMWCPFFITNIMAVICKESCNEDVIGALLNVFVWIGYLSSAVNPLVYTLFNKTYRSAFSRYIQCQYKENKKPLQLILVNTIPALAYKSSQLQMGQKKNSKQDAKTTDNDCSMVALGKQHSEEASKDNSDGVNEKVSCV
Chain of 5-hydroxytryptamine receptor 2B (P41595 whole entry): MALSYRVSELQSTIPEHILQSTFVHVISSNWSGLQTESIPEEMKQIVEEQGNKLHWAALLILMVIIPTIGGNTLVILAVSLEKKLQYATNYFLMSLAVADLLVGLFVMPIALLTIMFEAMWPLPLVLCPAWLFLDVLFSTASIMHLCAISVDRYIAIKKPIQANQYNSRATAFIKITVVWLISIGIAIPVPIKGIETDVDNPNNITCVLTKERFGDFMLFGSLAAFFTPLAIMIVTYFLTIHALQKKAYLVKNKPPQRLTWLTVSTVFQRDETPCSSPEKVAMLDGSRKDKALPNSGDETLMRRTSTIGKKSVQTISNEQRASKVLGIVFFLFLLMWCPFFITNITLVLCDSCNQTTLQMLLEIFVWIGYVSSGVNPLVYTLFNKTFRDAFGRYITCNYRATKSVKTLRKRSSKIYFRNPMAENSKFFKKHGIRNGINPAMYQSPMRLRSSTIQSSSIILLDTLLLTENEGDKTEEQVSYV
Chain of Motilin receptor (O43193 whole entry): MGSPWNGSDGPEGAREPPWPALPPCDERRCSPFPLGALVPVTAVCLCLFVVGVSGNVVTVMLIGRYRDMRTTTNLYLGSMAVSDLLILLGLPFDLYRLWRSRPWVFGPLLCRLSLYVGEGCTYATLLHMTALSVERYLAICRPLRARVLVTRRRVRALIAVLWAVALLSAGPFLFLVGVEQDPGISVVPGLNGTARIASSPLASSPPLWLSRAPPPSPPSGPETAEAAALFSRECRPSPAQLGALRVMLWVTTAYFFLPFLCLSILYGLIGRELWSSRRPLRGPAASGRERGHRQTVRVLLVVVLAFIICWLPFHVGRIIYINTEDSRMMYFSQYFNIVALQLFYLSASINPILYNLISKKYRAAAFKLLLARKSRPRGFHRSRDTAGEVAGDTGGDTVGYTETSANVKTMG
Chain of Gamma-aminobutyric acid receptor subunit alpha-1/alpha-2/beta-2/gamma-2 (P14867 whole entry): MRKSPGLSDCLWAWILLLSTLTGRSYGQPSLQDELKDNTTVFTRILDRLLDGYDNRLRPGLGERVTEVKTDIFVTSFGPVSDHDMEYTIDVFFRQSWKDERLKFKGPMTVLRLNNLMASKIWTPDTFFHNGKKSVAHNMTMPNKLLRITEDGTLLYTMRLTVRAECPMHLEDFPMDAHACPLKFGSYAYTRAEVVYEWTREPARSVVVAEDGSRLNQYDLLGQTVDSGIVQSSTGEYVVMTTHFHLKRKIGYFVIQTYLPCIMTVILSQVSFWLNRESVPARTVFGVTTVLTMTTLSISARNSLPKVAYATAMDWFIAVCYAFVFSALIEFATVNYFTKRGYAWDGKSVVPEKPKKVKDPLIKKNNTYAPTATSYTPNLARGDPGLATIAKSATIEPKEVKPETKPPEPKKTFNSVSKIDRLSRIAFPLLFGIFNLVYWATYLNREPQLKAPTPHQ
Chain of Gamma-aminobutyric acid receptor subunit alpha-1/alpha-2/beta-2/gamma-2 (P47870 whole entry): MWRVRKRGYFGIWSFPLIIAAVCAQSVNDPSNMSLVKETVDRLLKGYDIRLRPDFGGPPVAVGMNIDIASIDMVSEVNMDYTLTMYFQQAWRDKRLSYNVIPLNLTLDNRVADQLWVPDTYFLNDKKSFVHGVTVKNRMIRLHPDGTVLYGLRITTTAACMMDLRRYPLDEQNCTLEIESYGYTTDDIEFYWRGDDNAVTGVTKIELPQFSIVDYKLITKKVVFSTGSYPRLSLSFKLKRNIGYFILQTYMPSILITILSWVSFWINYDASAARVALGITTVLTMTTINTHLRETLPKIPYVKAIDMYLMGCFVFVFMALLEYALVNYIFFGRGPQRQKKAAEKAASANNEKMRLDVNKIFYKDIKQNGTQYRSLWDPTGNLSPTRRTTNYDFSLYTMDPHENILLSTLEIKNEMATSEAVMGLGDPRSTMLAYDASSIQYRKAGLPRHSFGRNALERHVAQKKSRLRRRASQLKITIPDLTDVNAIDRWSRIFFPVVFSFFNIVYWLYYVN
Chain of Gamma-aminobutyric acid receptor subunit alpha-1/alpha-2/beta-2/gamma-2 (P18507 whole entry): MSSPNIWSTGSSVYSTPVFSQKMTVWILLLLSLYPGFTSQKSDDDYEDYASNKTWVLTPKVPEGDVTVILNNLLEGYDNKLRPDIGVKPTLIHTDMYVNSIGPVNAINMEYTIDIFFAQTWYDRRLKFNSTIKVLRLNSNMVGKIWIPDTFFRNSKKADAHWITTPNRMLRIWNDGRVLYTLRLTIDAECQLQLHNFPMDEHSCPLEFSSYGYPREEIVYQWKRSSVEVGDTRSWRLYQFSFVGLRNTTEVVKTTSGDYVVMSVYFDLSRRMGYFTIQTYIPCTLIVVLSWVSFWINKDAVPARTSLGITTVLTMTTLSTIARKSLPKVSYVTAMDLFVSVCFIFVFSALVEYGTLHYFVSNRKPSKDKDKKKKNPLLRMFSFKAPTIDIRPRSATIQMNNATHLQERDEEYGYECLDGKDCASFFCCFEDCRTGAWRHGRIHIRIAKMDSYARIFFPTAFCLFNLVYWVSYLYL
Chain of Gamma-aminobutyric acid receptor subunit alpha-1/alpha-2/beta-2/gamma-2 (P47869 whole entry): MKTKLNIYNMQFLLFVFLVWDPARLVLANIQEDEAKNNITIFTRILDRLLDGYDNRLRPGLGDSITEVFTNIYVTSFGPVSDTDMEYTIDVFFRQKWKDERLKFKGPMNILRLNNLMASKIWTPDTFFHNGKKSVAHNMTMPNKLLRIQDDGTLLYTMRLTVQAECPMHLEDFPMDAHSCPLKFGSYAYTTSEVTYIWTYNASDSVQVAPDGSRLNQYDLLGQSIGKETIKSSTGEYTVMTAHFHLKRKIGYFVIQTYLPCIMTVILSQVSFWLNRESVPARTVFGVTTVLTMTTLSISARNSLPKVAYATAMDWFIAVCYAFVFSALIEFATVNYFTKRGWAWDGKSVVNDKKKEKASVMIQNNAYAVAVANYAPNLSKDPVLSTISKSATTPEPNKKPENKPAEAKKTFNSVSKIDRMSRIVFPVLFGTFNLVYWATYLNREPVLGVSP

One may read the AC50 as the concentration at which the activity in the assay is half-maximal. Read a low AC50 as greater potency. For the compound `CC(=N)N1CC[C@H](SC2=C(C(=O)O)N3C(=O)[C@H]([C@@H](C)O)[C@H]3C2)C1`, the half-maximal activity concentration (AC50) was 140 µM on Adenosine receptor A3; 68 µM in [1]; more than 300 µM in assay [2]; more than 2400 µM in assay [3]; more than 300 µM in assay [4]; more than 300 µM on Motilin receptor. The compound further had an AC50 on Progesterone receptor [5] of more than 300 µM.
With `CO/N=C(\C(=O)N[C@@H]1C(=O)N2C(C(=O)O)=C(COC(N)=O)CS[C@H]12)c1ccco1` [CEFUROXIME], the AC50 (at Adenosine receptor A3; in assay [1]; in assay [2]; in [3]; in assay [4]; at Motilin receptor) was more than 30 µM throughout.
As for `COC(=O)[C@H](c1ccccc1Cl)N1CCc2sccc2C1` [CLOPIDOGREL], the concentration at half-maximal activity (AC50) is more than 30 µM at Adenosine receptor A3; 27 µM in [2]; more than 30 µM in assay [3]; more than 10 µM in assay [6]; more than 30 µM on Motilin receptor; more than 30 µM on Progesterone receptor [5]. The AC50 at Progesterone receptor [7] was more than 30 µM; on Thromboxane A2 receptor, more than 30 µM; in assay [8] it was more than 10 µM.
As for `CN1C[C@H](C(=O)N[C@]2(C)O[C@@]3(O)[C@@H]4CCCN4C(=O)[C@H](Cc4ccccc4)N3C2=O)C[C@@H]2c3cccc4[nH]cc(c34)C[C@H]21` [DIHYDROERGOTAMINE], the half-maximal activity concentration (AC50) on Adenosine receptor A3 is more than 30 µM; in assay [2], more than 10 µM; in assay [6], 0.0638 µM; on Motilin receptor, more than 10 µM; on Progesterone receptor [7], more than 30 µM; on Thromboxane A2 receptor, 13.7 µM. In addition, the half-maximal activity concentration (AC50) in assay [8] is more than 10 µM.
With `C#Cc1cccc(Nc2ncnc3cc(OCCOC)c(OCCOC)cc23)c1` [ERLOTINIB], the concentration at half-maximal activity (AC50) on Adenosine receptor A3 is 25 µM; in [1], more than 30 µM; in assay [2], more than 30 µM; in assay [3], more than 30 µM; on Motilin receptor it was more than 30 µM; at Progesterone receptor [5], more than 30 µM.
On to `CCC(=O)O[C@@H](O[P@](=O)(CCCCc1ccccc1)CC(=O)N1C[C@H](C2CCCCC2)C[C@H]1C(=O)O)C(C)C` [FOSINOPRIL], for which the concentration at half-maximal activity (AC50) in assay [1], in [2], in [3] and in [4] was more than 30 µM each time.
`Cc1cnc(NC(=O)C2=C(O)c3ccccc3S(=O)(=O)N2C)s1` [MELOXICAM]: the AC50 at Adenosine receptor A3 was more than 30 µM; in [2], more than 10 µM; in [6], more than 10 µM; on Motilin receptor, more than 10 µM; at Progesterone receptor [7], more than 30 µM; on Thromboxane A2 receptor, more than 30 µM. For the same compound, the half-maximal activity concentration (AC50) in assay [8] was more than 10 µM.
Turning to `CN(C)c1cc(CNCC(C)(C)C)c(O)c2c1C[C@H]1C[C@H]3[C@H](N(C)C)C(O)=C(C(N)=O)C(=O)[C@@]3(O)C(O)=C1C2=O` [OMADACYCLINE], the concentration at half-maximal activity (AC50) was 25 µM at Adenosine receptor A3; 29 µM in assay [1]; 24.3 µM in assay [2]; more than 30 µM in assay [3]; more than 30 µM in assay [4]; more than 30 µM at Motilin receptor. For the same compound, the values for the AC50 (on Progesterone receptor [5]; in assay [8]) were more than 30 µM and 4.25 µM, respectively.
For `CC(C)C[C@H](CN)CC(=O)O` [PREGABALIN], the AC50 (at Adenosine receptor A3; in assay [1]; in [2]; in assay [3]; in assay [4]; on Motilin receptor) was more than 30 µM in each case. Besides, the AC50 at Progesterone receptor [5] was more than 30 µM; on Progesterone receptor [7] it was 20.2 µM; on Thromboxane A2 receptor it was more than 30 µM.
For the compound `CCOc1cc(CC(=O)N[C@@H](CC(C)C)c2ccccc2N2CCCCC2)ccc1C(=O)O` [REPAGLINIDE], the AC50 on Adenosine receptor A3 is 22 µM; in assay [1], more than 30 µM; in assay [2], more than 30 µM; in assay [3], more than 30 µM; in assay [4] it was 9.4 µM; at Motilin receptor, more than 30 µM. This compound also displayed a half-maximal activity concentration (AC50) on Progesterone receptor [5] of more than 30 µM.
Regarding `CCCN(CCc1cccs1)[C@H]1CCc2c(O)cccc2C1` [ROTIGOTINE], the AC50 is 24 µM on Adenosine receptor A3; 25 µM in assay [1]; more than 10 µM in assay [2]; more than 30 µM in [3]; more than 30 µM on Motilin receptor; more than 30 µM on Progesterone receptor [5].
On to `CC(=O)S[C@@H]1CC2=CC(=O)CC[C@]2(C)[C@H]2CC[C@@]3(C)[C@@H](CC[C@@]34CCC(=O)O4)[C@H]12` [SPIRONOLACTONE], for which the concentration at half-maximal activity (AC50) at Adenosine receptor A3 is more than 30 µM; in assay [2], 26 µM; in assay [3], more than 30 µM; in assay [6], more than 10 µM; on Motilin receptor, more than 30 µM; at Thromboxane A2 receptor, more than 30 µM. Also, the AC50 in [8] is more than 10 µM.
In the case of `CCCCNc1ccc(C(=O)OCCN(C)C)cc1` [TETRACAINE], the AC50 at Adenosine receptor A3 was more than 30 µM; in [2], more than 10 µM; in assay [6] it was 1.42 µM; at Motilin receptor, more than 10 µM; at Progesterone receptor [7] it was more than 30 µM; at Thromboxane A2 receptor, more than 30 µM. Further, in assay [8], the half-maximal activity concentration (AC50) was more than 10 µM.
Consider `CN1CCN(CCCN2c3ccccc3Sc3ccc(S(=O)(=O)N(C)C)cc32)CC1` [THIOPROPERAZINE], for which the AC50 was 12 µM in [1], 12 µM in assay [2], more than 30 µM in [3] and 5.8 µM in [4].
As to `CC1(C)O[C@@H]2[C@@H](CO[C@@]3(COS(N)(=O)=O)OC(C)(C)O[C@@H]23)O1` [TOPIRAMATE], the AC50 at Adenosine receptor A3 is more than 30 µM; in assay [1] it was more than 10 µM; in [2], more than 10 µM; in assay [6], more than 10 µM; at Motilin receptor, more than 10 µM; on Progesterone receptor [7], more than 30 µM. Moreover, the AC50 on Thromboxane A2 receptor was more than 30 µM; in [8], more than 10 µM.
